Results from patent US20060069132A1, “Azolecarboxamide herbicides” (priority 2004, published 2006).

What was measured:
corn = test: Test B pre-/postemergence herbicide test; format: in vivo, Zea mays
Summary of the method: (§1)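 Test chemicals in a non-phytotoxic solvent mixture with surfactant were applied preemergence to seeded species and postemergence to plants 2-18 cm tall (1- to 4-leaf stage); rice and barnyardgrass were also tested in a flooded paddy at the 2-leaf stage. Visual rating versus controls after 13-15 days in greenhouse, scale 0 (no effect) to 100 (complete control).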

rice [1] = test: Test C flooded paddy test; format: in vivo, Oryza sativa
Description: (§2) At the same time, plants selected from these crop and weed species and also winter barley (Hordeum vulgare L.), blackgrass (Alopecurus myosuroides Huds.), canarygrass (Phalaris minor Retz.), chickweed (Stellaria media (L.) Vill.), downy bromegrass (Bromus tectorum L.), green foxtail (Setaria viridis (L.) Beauv.), Italian ryegrass (Lolium multiflorum Lam.), wheat (Triticum aestivum L.), wild oat (Avenafatua L.) and windgrass (Apera spica-venti (L.) Beauv.) were treated with postemergence applications of some of the test chemicals formulated in the same manner. Plants ranged in height from 2 to 18 cm (1- to 4-leaf stage) for postemergence treatments. Plant species in the flooded paddy test consisted of rice (Oryza sativa), smallflower umbrella sedge (Cyperus difformis L.), ducksalad (Heteranthera limosa (Sw.) Willd.) and barnyardgrass (Echinochloa crus-galli (L.) Beauv.) grown to the 2-leaf stage for testing. Treated plants and controls were maintained in a greenhouse for 12 to 14 days, after which time all species were compared to controls and visually evaluated. Plant response ratings, summarized in Table C, are based on a scale of 0 to 100 where 0 is no effect and 100 is complete control. A dash (-) response means no test result.

Surinam grass = test: Test B pre-/postemergence herbicide test; format: in vivo, Urochloa decumbens
Summary of the method: as §1

wheat = test: Test B postemergence herbicide test; format: in vivo, Triticum aestivum; parameters: key to Wheat plant response rating: 0 = no effect, 100 = complete control
Summary of the method: (§3)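 Formulated test chemicals went onto postemergence plants measuring 2 to 18 cm, at one to four leaves. For the paddy assay, species had reached two leaves. Scoring took place 13–15 days later by eye, relative to untreated plants, using 0 for no effect up to 100 for full control.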

rice [2] = test: Test B flooded paddy test; format: in vivo, Oryza sativa; conditions: 1000 g ai/ha, scale 0 to 100 (0 no effect, 100 complete control)
Summary of the method: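 Paddy species grown to the 2-leaf stage under flooding; blackgrass sprayed postemergence at 2–18 cm (1- to 4-leaf stage). Plants kept in a greenhouse for 13 to 15 days, then visually rated against controls on 0 (no effect) to 100 (complete control).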

barnyardgrass [3] = test: Test C flooded paddy test; format: in vivo, Echinochloa crus-galli
Description: as §2

blackgrass = test: Test B postemergence herbicide test; format: in vivo, Alopecurus myosuroides
Summary of the method: (§4)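 Plants grow to 1- to 4-leaf stage (2–18 cm) for postemergence spraying, or to 2-leaf stage for the paddy test. Formulated compound is applied. Greenhouse holding lasts 13–15 days. Response is scored visually relative to controls, 0 no effect to 100 complete control; a dash means no result.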

[4] = tested on: smallflower umbrella sedge; test: Test C flooded paddy test; format: in vivo, Cyperus difformis
Description: as §2

velvetleaf = test: Test B pre-/postemergence herbicide test; format: in vivo, Abutilon theophrasti
Summary of the method: as §1

[5] = tested on: small flower umbrella sedge; test: Test B flooded paddy test; format: in vivo, Cyperus difformis; conditions: 1000 g ai/ha, scale 0 to 100 (0 no effect, 100 complete control)
Summary of the method: as §4

ducksalad [6] = test: Test B flooded paddy test; format: in vivo, Heteranthera limosa; conditions: 1000 g ai/ha, scale 0 to 100 (0 no effect, 100 complete control)
Summary of the method: as §4

giant foxtail = test: Test B pre-/postemergence herbicide test; format: in vivo, Setaria faberi
Summary of the method: as §1

cocklebur = test: Test B pre-/postemergence herbicide test; format: in vivo, Xanthium strumarium
Summary of the method: (§5)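 Species tested were Echinochloa crus-galli, Ipomoea coccinea, Xanthium strumarium and Oryza sativa, treated both before emergence and at the 1- to 4-leaf stage; rice and barnyardgrass were also tested under flooding at 2 leaves. Greenhouse incubation lasted 13–15 days before visual 0–100 scoring.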

pigweed = test: Test B pre-/postemergence herbicide test; format: in vivo, Amaranthus retroflexus
Summary of the method: as §1

large crabgrass = test: Test B pre-/postemergence herbicide test; format: in vivo, Digitaria sanguinalis
Summary of the method: as §1

barnyardgrass [7] = test: Test B flooded paddy test; format: in vivo, Echinochloa crus-galli; conditions: 1000 g ai/ha, scale 0 to 100 (0 no effect, 100 complete control)
Summary of the method: as §4

morningglory = test: Test B pre-/postemergence herbicide test; format: in vivo, Ipomoea coccinea
Summary of the method: as §5

barnyardgrass [8] = test: Test B pre-/postemergence herbicide test; format: in vivo, Echinochloa crus-galli; conditions: for Barnyardgrass plant response rating: Postemergence, scale 0 (no effect) to 100 (complete control)
Summary of the method: as §5

ducksalad [9] = test: Test C flooded paddy test; format: in vivo, Heteranthera limosa
Description: as §2

lambsquarters = test: Test B pre-/postemergence herbicide test; format: in vivo, Chenopodium album
Summary of the method: as §1

wild oat = test: Test B postemergence herbicide test; format: in vivo, Avena fatua
Summary of the method: as §3

[10] = 125 g ai/ha, 0 is no effect, 100 is complete control, preemergence
[11] = Postemergence, 500 g ai/ha, scale 0 (no effect) to 100 (complete control)
[12] = postemergence, 125 g ai/ha, scale 0 to 100
[13] = 125 g ai/ha, scale 0 to 100 (0 no effect, 100 complete control)
[14] = 250 g ai/ha, scale of 0 to 100, 0 is no effect, 100 is complete control
[15] = 500 g ai/ha, visual rating after 12 to 14 days, scale 0 to 100 (0 no effect, 100 complete control)

CCN(C)C(=O)c1cccc(NC(=O)c2nn(C(C)C)nc2C)c1 [Compound 407]
Plant response rating (0 to 100 scale), Corn (corn; [10]): 0
Corn plant response rating (corn; [11]): 20
Corn plant response rating (corn; [12]): 10
Rice plant response rating (rice [1]; 62 g ai/ha, scale 0 to 100): 0
Rice plant response rating (rice [1]; [13]): 0
Rice plant response rating (rice [1]; [14]): 20
Plant response rating, Rice (rice [1]; [15]): 40
Plant response rating (0 to 100 scale), Surinam Grass (Surinam grass; [10]): 30
Surinam Grass plant response rating (Surinam grass; [11]): 20
Surinam Grass plant response rating (Surinam grass; [12]): 0
Wheat plant response rating (wheat; 500 g ai/ha, scale 0 to 100, 0 no effect, 100 complete control, preemergence): 70
Wheat plant response rating (wheat; [11]): 0
Wheat plant response rating (wheat; [12]): 0
Rice plant response rating (rice [2]): 50
Barnyardgrass plant response rating (barnyardgrass [3]; 62 g ai/ha, scale 0 to 100 (0 no effect, 100 complete control)): 0
Barnyardgrass plant response rating (barnyardgrass [3]; [13]): 0
Barnyardgrass plant response rating (barnyardgrass [3]; [14]): 0
Plant response rating, Barnyardgrass (barnyardgrass [3]; [15]): 20
Blackgrass plant response rating (blackgrass; [11]): 20
Blackgrass plant response rating (blackgrass; [12]): 0
Sedge, Umbrella plant response rating ([4]; 62 g ai/ha, scale 0 to 100): 20
Sedge, Umbrella plant response rating [4, 13]: 60
Sedge, Umbrella plant response rating [4, 14]: 75
Plant response rating, Sedge, Umbrella [4, 15]: 75
Plant response rating (0 to 100 scale), Velvetleaf (velvetleaf; [10]): 10
Velvetleaf plant response rating (velvetleaf; [11]): 20
Velvetleaf plant response rating (velvetleaf; [12]): 20
Sedge, Umbrella plant response rating [5]: 90
Ducksalad plant response rating (ducksalad [6]): 80
Plant response rating (0 to 100 scale), Foxtail, Giant (giant foxtail; [10]): 30
Foxtail, Giant plant response rating (giant foxtail; [11]): 30
Foxtail, Giant plant response rating (giant foxtail; [12]): 10
Plant response rating (0 to 100 scale), Cocklebur (cocklebur; [10]): 10
Cocklebur plant response rating (cocklebur; [11]): 20
Cocklebur plant response rating (cocklebur; [12]): 10
Plant response rating (0 to 100 scale), Pigweed (pigweed; [10]): 50
Pigweed plant response rating (pigweed; [11]): 40
Pigweed plant response rating (pigweed; [12]): 30
Plant response rating (0 to 100 scale), Crabgrass, Large (large crabgrass; [10]): 80
Crabgrass, Large plant response rating (large crabgrass; [11]): 20
Crabgrass, Large plant response rating (large crabgrass; [12]): 10
Barnyardgrass plant response rating (barnyardgrass [7]): 80
Plant response rating (0 to 100 scale), Morningglory (morningglory; [10]): 30
Morningglory plant response rating (morningglory; [11]): 60
Morningglory plant response rating (morningglory; [12]): 20
Plant response rating (0 to 100 scale), Barnyardgrass (barnyardgrass [8]; [10]): 40
Barnyardgrass plant response rating (barnyardgrass [8]; 125 g ai/ha): 0
Barnyardgrass plant response rating (barnyardgrass [8]; 500 g ai/ha): 10
Ducksalad plant response rating (ducksalad [9]; 62 g ai/ha, scale 0 to 100): 20
Ducksalad plant response rating (ducksalad [9]; [13]): 40
Ducksalad plant response rating (ducksalad [9]; [14]): 40
Plant response rating, Ducksalad (ducksalad [9]; [15]): 40
Plant response rating (0 to 100 scale), Lambsquarters (lambsquarters; [10]): 80
Lambsquarters plant response rating (lambsquarters; [11]): 60
Oat, Wild plant response rating (wild oat; [11]): 0
Oat, Wild plant response rating (wild oat; [12]): 0
